Active and inactive are the calls of the source. The rule behind the calls is not given here.
Legend:
Format in all cases: cell-based
[1] = target: T1, Toll-like receptor 4 (Mus musculus) (UniProt Q9QUK6); test: Inhibition of LPS binding to TLR4 in IFNgamma-stimulated mouse RAW264.7 cells assessed as reduction in iNOS expression at 100 uM by Western blot analysis
T1 sequence (whole entry): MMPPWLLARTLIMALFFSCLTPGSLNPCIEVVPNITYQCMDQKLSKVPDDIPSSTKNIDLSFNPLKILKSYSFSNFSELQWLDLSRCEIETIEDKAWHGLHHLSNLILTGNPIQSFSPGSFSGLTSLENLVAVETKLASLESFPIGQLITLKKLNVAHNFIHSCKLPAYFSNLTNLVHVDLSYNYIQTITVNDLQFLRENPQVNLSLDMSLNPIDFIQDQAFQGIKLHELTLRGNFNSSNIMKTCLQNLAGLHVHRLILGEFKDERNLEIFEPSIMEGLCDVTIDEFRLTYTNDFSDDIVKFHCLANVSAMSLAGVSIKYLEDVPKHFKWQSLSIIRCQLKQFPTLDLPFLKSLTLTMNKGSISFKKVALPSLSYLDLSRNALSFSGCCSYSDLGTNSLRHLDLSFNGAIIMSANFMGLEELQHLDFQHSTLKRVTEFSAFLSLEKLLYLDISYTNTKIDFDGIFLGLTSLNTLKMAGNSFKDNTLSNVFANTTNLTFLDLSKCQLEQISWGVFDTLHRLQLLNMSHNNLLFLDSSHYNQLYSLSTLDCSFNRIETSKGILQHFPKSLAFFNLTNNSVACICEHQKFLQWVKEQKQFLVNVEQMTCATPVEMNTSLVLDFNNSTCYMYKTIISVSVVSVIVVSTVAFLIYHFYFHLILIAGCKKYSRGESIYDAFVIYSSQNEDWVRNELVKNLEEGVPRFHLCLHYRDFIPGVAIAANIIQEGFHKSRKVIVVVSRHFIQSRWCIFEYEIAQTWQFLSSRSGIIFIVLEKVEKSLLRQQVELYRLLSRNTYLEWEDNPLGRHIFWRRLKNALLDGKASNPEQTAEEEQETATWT

[2] = target: T1, Toll-like receptor 4 (Mus musculus); test: Inhibition of LPS binding to TLR4 in IFNgamma-stimulated mouse RAW264.7 cells assessed as suppression of IL-12 mRNA expression at 100 uM by qRT-PCR analysis
[3] = target: T1, Toll-like receptor 4 (Mus musculus); test: Inhibition of LPS binding to TLR4 in IFNgamma-stimulated mouse RAW264.7 cells assessed as effect on ratio of phosphorylated TAK1 to total TAK1 at 100 uM measured after 15 mins by Western blot analysis relative to beta-actin (reference value: 1.3)
[4] = target: T1, Toll-like receptor 4 (Mus musculus); test: Inhibition of LPS binding to TLR4 in IFNgamma-stimulated mouse RAW264.7 cells assessed as effect on ratio of phosphorylated TAK1 to total TAK1 at 100 uM measured after 30 mins by Western blot analysis relative to beta-actin (reference value: 3.7)
[5] = target: T1, Toll-like receptor 4 (Mus musculus); test: Inhibition of LPS binding to TLR4 in IFNgamma-stimulated mouse RAW264.7 cells assessed as effect on ratio of phosphorylated TAK1 to total TAK1 at 100 uM measured after 60 mins by Western blot analysis relative to beta-actin (reference value: 3.1)
[6] = target: T1, Toll-like receptor 4 (Mus musculus); test: Inhibition of LPS binding to TLR4 in IFNgamma-stimulated mouse RAW264.7 cells assessed as effect on ratio of phosphorylated p38 to total p38 at 100 uM measured after 15 mins by Western blot analysis relative to beta-actin (reference value: 4.9)
[7] = target: T1, Toll-like receptor 4 (Mus musculus); test: Inhibition of LPS binding to TLR4 in IFNgamma-stimulated mouse RAW264.7 cells assessed as effect on ratio of phosphorylated p38 to total p38 at 100 uM measured after 30 mins by Western blot analysis relative to beta-actin (reference value: 4.8)
[8] = target: T1, Toll-like receptor 4 (Mus musculus); test: Inhibition of LPS binding to TLR4 in IFNgamma-stimulated mouse RAW264.7 cells assessed as effect on ratio of phosphorylated JNK to total JNK at 100 uM measured after 120 mins by Western blot analysis relative to beta-actin (reference value: 1)
[9] = target: T1, Toll-like receptor 4 (Mus musculus); test: Inhibition of LPS binding to TLR4 in IFNgamma-stimulated mouse RAW264.7 cells assessed as effect on ratio of phosphorylated AKT to total AKT at 100 uM measured after 30 mins by Western blot analysis relative to beta-actin (reference value: 1.4)
[10] = target: T1, Toll-like receptor 4 (Mus musculus); test: Inhibition of LPS binding to TLR4 in IFNgamma-stimulated mouse RAW264.7 cells assessed as effect on ratio of phosphorylated AKT to total AKT at 100 uM measured after 60 mins by Western blot analysis relative to beta-actin (reference value: 1.4)
[11] = target: T1, Toll-like receptor 4 (Mus musculus); test: Inhibition of LPS binding to TLR4 in IFNgamma-stimulated mouse RAW264.7 cells assessed as effect on ratio of phosphorylated AKT to total AKT at 100 uM measured after 120 mins by Western blot analysis relative to beta-actin (reference value: 1.4)
[12] = tested on: RAW264.7; test: Inhibition of IFNgamma binding to IFNGR in LPS-stimulated mouse RAW264.7 cells assessed as effect on ratio of phosphorylated Stat1 to total Stat1 at 100 uM measured after 15 mins by Western blot analysis relative to beta-actin (reference value: 1.3)
[13] = tested on: RAW264.7; test: Inhibition of IFNgamma binding to IFNGR in LPS-stimulated mouse RAW264.7 cells assessed as effect on ratio of phosphorylated Stat1 to total Stat1 at 100 uM measured after 120 mins by Western blot analysis relative to beta-actin (reference value: 4.1)
[14] = target: T2, Nuclear factor erythroid 2-related factor 2 (Mus musculus) (UniProt Q60795); test: Induction of NRF2-ARE mediated HO-1 expression in mouse RAW264.7 cells at 100 uM after 2 hrs by Western blot analysis
T2 sequence (whole entry): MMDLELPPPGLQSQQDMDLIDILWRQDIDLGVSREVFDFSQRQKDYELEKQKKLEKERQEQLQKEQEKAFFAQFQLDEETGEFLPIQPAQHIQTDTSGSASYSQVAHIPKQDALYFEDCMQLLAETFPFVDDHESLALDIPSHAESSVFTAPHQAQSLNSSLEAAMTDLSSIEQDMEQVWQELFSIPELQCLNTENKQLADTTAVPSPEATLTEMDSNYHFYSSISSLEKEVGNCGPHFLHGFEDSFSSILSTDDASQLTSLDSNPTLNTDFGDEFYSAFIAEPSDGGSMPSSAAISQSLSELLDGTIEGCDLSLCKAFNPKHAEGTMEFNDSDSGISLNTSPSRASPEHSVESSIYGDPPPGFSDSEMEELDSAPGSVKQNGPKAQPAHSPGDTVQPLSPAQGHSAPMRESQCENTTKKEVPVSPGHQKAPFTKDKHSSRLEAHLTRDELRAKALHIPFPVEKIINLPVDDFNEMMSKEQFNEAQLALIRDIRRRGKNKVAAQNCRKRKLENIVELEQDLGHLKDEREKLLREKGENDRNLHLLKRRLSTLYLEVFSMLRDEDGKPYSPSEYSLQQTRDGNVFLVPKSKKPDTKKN

inhibition [1]: Active
inhibition [2]: Active
fold change (FC) [3]: 1
fold change (FC) [4]: 0.6
fold change (FC) [5]: 1
fold change (FC) [6]: 4
fold change (FC) [7]: 4
fold change (FC) [8]: 1.1
fold change (FC) [9]: 1.2
fold change (FC) [10]: 1
fold change (FC) [11]: 0.9
Activity [14]: inactive
Structure (SMILES): C=C(C)[C@@H]1CC[C@]2(C)[C@H](CC=C3[C@@H]4CC(C)(C)CC[C@]4(C)CC[C@]32C(=O)O)[C@@]1(C)CCC(=O)O
fold change (FC) [12]: 1.2
fold change (FC) [13]: 1.6

From ChEMBL document CHEMBL4261619, “Sentulic acid isolated from Sandoricum koetjape Merr attenuates lipopolysaccharide and interferon gamma co-stimulated nitric oxide production in murine macrophage RAW264 cells” (Bioorg Med Chem Lett, 2018)
